13 molecules from ChEMBL document CHEMBL1131869, “Chlorophenylmethyl benzothiadiazine dioxides derivatives: potent human cytomegalovirus inhibitors” (Bioorg Med Chem Lett, 1999) can be followed below.

Structures are written as SMILES.

The subject of experiment [1] is Human betaherpesvirus 5. The experiment can be described thus: Antiviral activity against Human cytomegalovirus (AD169) strain(HCMV). It counts as functional, organism-based.
In experiment [2] the test system is Human betaherpesvirus 5. The experiment can be described thus: Antiviral activity against clinical isolates of human origin CMV-strainC. It counts as functional, organism-based.
The test system of experiment [3] is Human betaherpesvirus 5. Nature of the experiment: Antiviral activity against clinical isolates of human origin CMV-strain B. The class given is functional, organism-based.
Experiment [4] concerns Human betaherpesvirus 5. Nature of the experiment: Antiviral activity against clinical isolates of human origin CMV-strainA. It counts as functional, organism-based.
The subject of experiment [5] is Human betaherpesvirus 5. Nature of the experiment: Cytotoxicity against Human cytomegalovirus (AD169) strain(HCMV). The class given is functional.

In the case of `O=C1c2ccccc2N(Cc2ccc(Cl)cc2)S(=O)(=O)N1Cc1ccccc1`, the IC50 in the experiment with Human betaherpesvirus 5 [1] was determined as 3.6 µM; in the experiment on Human betaherpesvirus 5 [2], 2.4 µM; with Human betaherpesvirus 5 [3] it was 1.2 µM; in the experiment on Human betaherpesvirus 5 [4], 2.4 µM. In the experiment with Human betaherpesvirus 5 [5], the CC50 was > 60 µM.

Take `O=C1c2ccccc2N(COCc2ccccc2)S(=O)(=O)N1COCc1ccccc1`: the half-inhibitory concentration (IC50) with Human betaherpesvirus 5 [1] was 34 µM. Also, in the experiment with Human betaherpesvirus 5 [5], the cytotoxic concentration (CC50) is > 57 µM.

Take `O=C1c2ccccc2N(Cc2ccc(Cl)cc2)S(=O)(=O)N1Cc1ccc(Cl)cc1`: in the experiment on Human betaherpesvirus 5 [1], the IC50 worked out at 3.6 µM. Besides, the CC50 in the experiment on Human betaherpesvirus 5 [5] was > 60 µM.

Consider `O=C1c2ccccc2N(Cc2ccccc2)S(=O)(=O)N1Cc1ccccc1Cl`, for which the IC50 in the experiment on Human betaherpesvirus 5 [1] amounted to 12.1 µM. In addition, the cytotoxic concentration (CC50) in the experiment on Human betaherpesvirus 5 [5] is > 60 µM.

As for `O=C1c2ccccc2N(Cc2ccccc2Cl)S(=O)(=O)N1Cc1ccccc1Cl`, the IC50 in the experiment on Human betaherpesvirus 5 [1] was found to be 3.6 µM. Further, in the experiment with Human betaherpesvirus 5 [5], the CC50 is > 60 µM.

Regarding `O=C1c2ccccc2N(Cc2ccccc2)S(=O)(=O)N1Cc1ccccc1`, half-maximal inhibition with Human betaherpesvirus 5 [1] (IC50) required 5.2 µM. Also, the cytotoxic concentration (CC50) in the experiment on Human betaherpesvirus 5 [5] is > 66 µM.

Take `Nc1nc2c(ncn2COC(CO)CO)c(=O)[nH]1` [GANCICLOVIR]: the 50% inhibitory concentration (IC50) in the experiment with Human betaherpesvirus 5 [1] came out at 5.9 µM; with Human betaherpesvirus 5 [2] it was 3.9 µM; with Human betaherpesvirus 5 [3] it was 3.9 µM; with Human betaherpesvirus 5 [4] it was 5.9 µM. Moreover, the cytotoxic concentration (CC50) in the experiment with Human betaherpesvirus 5 [5] is > 98 µM.

In turn, `O=S1(=O)N=C(OCc2ccccc2)c2ccccc2N1Cc1ccccc1` came in with an IC50 in the experiment on Human betaherpesvirus 5 [1] of 7.9 µM. Also, the CC50 with Human betaherpesvirus 5 [5] was > 66 µM.

In the experiment with Human betaherpesvirus 5 [1], `O=C1c2ccccc2N(Cc2ccc(Cl)cc2)S(=O)(=O)N1COCc1ccccc1` registered a half-inhibitory concentration (IC50) of 6.7 µM. Also, the cytotoxic concentration (CC50) with Human betaherpesvirus 5 [5] is > 56 µM.

For the molecule `O=C1c2ccccc2N(Cc2ccccc2Cl)S(=O)(=O)N1Cc1ccccc1`, in the experiment with Human betaherpesvirus 5 [1], the IC50 amounted to 4.8 µM. Besides, in the experiment with Human betaherpesvirus 5 [5], the CC50 was > 60 µM.

In the experiment on Human betaherpesvirus 5 [1], `O=C1c2ccccc2N(Cc2ccccc2)S(=O)(=O)N1Cc1ccc(Cl)cc1` gave an IC50 of 6 µM. Also, in the experiment on Human betaherpesvirus 5 [5], the CC50 was > 60 µM.

In the experiment with Human betaherpesvirus 5 [1], `O=C1c2ccccc2N(Cc2cccc(Cl)c2)S(=O)(=O)N1Cc1ccccc1` yielded a concentration for half-maximal inhibition (IC50) of 3.6 µM. In addition, the CC50 in the experiment with Human betaherpesvirus 5 [5] is > 60 µM.

On to `O=C1c2ccccc2N(Cc2ccccc2Cl)S(=O)(=O)N1COCc1ccccc1`, for which the midpoint of inhibition in the experiment on Human betaherpesvirus 5 [1], the IC50, lay at 18 µM. For the same molecule, the CC50 with Human betaherpesvirus 5 [5] is > 56 µM.
